Measured values published in ChEMBL document CHEMBL5647698, “Covalent-Allosteric Inhibitors to Achieve Akt Isoform-Selectivity” (Angew Chem Int Ed Engl, 2019).
Active and inactive are the calls of the source. No cut-off for these calls is given here.

How the values were obtained:
[1] = biological target: RAC-alpha serine/threonine-protein kinase (Homo sapiens, UniProt P31749); experiment: biochemical
[2] = biological target: RAC-gamma serine/threonine-protein kinase (Homo sapiens, UniProt Q9Y243)
Description: Inhibition of wild-type AKT3 (unknown origin) by HTRF KinEASE assay

PANC-1 [3] = experiment: Downregulation of p-AKT level at serine 473 residue in Akt1 knockout human PANC-1 cells measured after 24 hrs by Western blotting analysis; format: functional, cell-based; details: dose 0.3-5 µM
PANC-1 [4] = experiment: Downregulation of p-PRAS40 level at threonine 246 residue in Akt1 knockout human PANC-1 cells measured after 24 hrs by Western blotting analysis; format: functional, cell-based; details: dose 0.3-5 µM

RAC-alpha serine/threonine-protein kinase, sequence (P31749 whole entry): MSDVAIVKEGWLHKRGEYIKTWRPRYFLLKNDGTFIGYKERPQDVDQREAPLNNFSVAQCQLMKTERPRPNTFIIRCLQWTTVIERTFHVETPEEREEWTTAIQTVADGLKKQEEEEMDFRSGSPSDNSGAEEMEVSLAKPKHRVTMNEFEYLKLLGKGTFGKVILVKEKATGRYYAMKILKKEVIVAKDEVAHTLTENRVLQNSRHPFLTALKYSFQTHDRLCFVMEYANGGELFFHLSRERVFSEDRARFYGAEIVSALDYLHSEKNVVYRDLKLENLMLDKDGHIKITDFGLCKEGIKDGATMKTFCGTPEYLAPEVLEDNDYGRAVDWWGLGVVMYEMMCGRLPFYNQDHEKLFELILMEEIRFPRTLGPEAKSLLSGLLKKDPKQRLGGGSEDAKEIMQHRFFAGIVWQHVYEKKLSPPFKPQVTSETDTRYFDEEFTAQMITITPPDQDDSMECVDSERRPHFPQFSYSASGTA
RAC-gamma serine/threonine-protein kinase, sequence (Q9Y243 whole entry): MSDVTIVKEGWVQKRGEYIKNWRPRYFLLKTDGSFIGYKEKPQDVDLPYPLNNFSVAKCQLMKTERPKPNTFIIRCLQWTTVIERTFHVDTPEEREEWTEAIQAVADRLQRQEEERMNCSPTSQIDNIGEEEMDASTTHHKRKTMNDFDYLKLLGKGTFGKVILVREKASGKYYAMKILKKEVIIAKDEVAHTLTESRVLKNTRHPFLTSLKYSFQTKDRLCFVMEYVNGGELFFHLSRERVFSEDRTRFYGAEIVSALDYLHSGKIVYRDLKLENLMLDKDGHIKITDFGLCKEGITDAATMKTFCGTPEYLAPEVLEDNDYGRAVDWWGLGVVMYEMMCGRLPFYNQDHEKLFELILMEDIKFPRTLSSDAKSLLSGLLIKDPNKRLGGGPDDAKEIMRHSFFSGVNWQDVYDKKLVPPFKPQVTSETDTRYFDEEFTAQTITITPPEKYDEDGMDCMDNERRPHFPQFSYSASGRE

Row | SMILES | IC50 [1] [µM] | IC50 [2] [µM] | Activity (PANC-1 [3]) | Activity (PANC-1 [4])
1 | Nc1ccc2[nH]c(=O)n(C3CCN(Cc4ccc(-c5[nH]c(=O)c(Cc6ccc(O)cc6)nc5-c5ccccc5)cc4)CC3)c2c1 | 5.59 | 17.7 | – | –
2 | CC(C)Cc1nc(-c2ccccc2)c(-c2ccc(CN3CCC(n4c(=O)[nH]c5ccc(N)cc54)CC3)cc2)[nH]c1=O | 2.83 | – | – | –
3 | C=CC(=O)Nc1ccc2[nH]c(=O)n(C3CCN(Cc4ccc(-c5[nH]c(=O)c(CC(C)C)nc5-c5ccccc5)cc4)CC3)c2c1 | – | – | Active | Active
4 | C=CC(=O)Nc1ccc2[nH]c(=O)n(C3CCN(Cc4ccc(-c5nc6cc[nH]c(=O)c6cc5-c5ccccc5)cc4)CC3)c2c1 | – | – | Active | Active
5 | C=CC(=O)Nc1ccc2[nH]c(=O)n(C3CCN(Cc4ccc(-c5[nH]c(=O)c(C)nc5-c5ccccc5)cc4)CC3)c2c1 | – | – | Active | Active
